Structures are written as SMILES.

In the first test the target is T1, Cannabinoid-1 receptor (CB1R) (Rattus norvegicus, UniProt P20272).
T1 construct: The tissue obtained from the brain of SD rats was homogenized; from tissue; host or cells: brain of SD rats (membrane pellet of the homogenate)
T1 sequence (P20272 whole entry): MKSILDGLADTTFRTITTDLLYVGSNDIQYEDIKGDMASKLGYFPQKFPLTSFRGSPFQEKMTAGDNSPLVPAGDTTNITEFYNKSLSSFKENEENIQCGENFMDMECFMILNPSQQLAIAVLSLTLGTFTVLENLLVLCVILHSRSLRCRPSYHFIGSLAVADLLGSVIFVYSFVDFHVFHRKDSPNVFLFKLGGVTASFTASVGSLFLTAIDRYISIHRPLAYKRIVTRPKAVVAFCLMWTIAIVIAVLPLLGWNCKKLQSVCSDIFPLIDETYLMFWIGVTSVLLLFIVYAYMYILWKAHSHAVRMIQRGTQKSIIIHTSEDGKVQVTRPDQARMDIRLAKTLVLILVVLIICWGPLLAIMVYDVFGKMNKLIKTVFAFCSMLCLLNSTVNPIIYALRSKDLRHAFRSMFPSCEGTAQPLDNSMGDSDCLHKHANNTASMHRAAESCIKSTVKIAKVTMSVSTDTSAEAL
Nature of the test: Cannabinoid-1 receptor (CB1R) binding affinity assay ([3H]CP-55940, rat CB-1 receptor binding protocol). As to conditions: IC50(nM), brain tissue of SD rats, [3H]CP-55940, 30° C. 60 min.
For orientation: IC50 means the concentration that inhibits the measured activity by half. Turning to `COc1ccc(C2(c3nnc(-c4nn(-c5ccc(Cl)cc5Cl)c(-c5ccc(Cl)cc5)c4C)o3)CC2)cc1` [Example 129, 2-(5-(4-chlorophenyl)-1-(2,4-dichlorophenyl)-4-methyl-1H-pyrazol-3-yl)-5-(1-(4-methoxyphenyl)cyclopropyl)-1,3,4-oxadiazole], the IC50 was 9.46 nM. The same measure, in the same setting: in the case of `Cc1c(-c2nnc(C3CC=CC3)s2)nn(-c2ccc(Cl)cc2Cl)c1-c1ccc(Cl)cc1` [Example 384, 2-(5-(4-chlorophenyl)-1-(2,4-dichlorophenyl)-4-methyl-1H-pyrazol-3-yl)-5-(cyclopent-3-enyl)-1,3,4-thiadiazole] it was 20.2 nM.

The test is the same for the next values; noted with them: brain tissue of SD rats, [3H]CP-55940, 30° C. 60 min; read-out: IC50.
Regarding `Cc1c(-c2nnc(C3(c4ccc(Cl)cc4)CCC3)o2)nn(-c2c(Cl)cccc2Cl)c1-c1ccc(Cl)cc1` [Example 162, 2-(5-(4-chlorophenyl)-1-(2,6-dichlorophenyl)-4-methyl-1H-pyrazol-3-yl)-5-(1-(4-chlorophenyl)cyclobutyl)-1,3,4-oxadiazole], the IC50 came to 59.2 nM. Same read-out and setting: to `CCCc1c(-c2nnc(C3(c4ccc(Cl)cc4)CC3)o2)nn(-c2ccc(Cl)cc2Cl)c1-c1ccc(Cl)cc1` [Example 186, 2-(5-(4-chlorophenyl)-1-(2,4-dichlorophenyl)-4-propyl-1H-pyrazol-3-yl)-5-(1-(4-chlorophenyl)cyclopropyl)-1,3,4-oxadiazole] belongs 12.1 nM; to `CCc1c(-c2nnc(C3(c4ccc(C)cc4)CC3)s2)nn(-c2ccc(Cl)cc2Cl)c1-c1ccc(Cl)cc1` [Example 480, 2-(5-(4-chlorophenyl)-1-(2,4-dichlorophenyl)-4-ethyl-1H-pyrazol-3-yl)-5-(1-p-tolylcyclopropyl)-1,3,4-thiadiazole], 5.08 nM. As for `Cc1c(-c2nnc(C3(c4ccc(Cl)cc4)CC3)o2)nn(-c2ccc(Cl)cc2)c1-c1ccc(Cl)cc1` [Example 119, 2-(1,5-Bis(4-chlorophenyl)-4-methyl-1H-pyrazol-3-yl)-5-(1-(4-chlorophenyl)cyclopropyl)-1,3,4-oxadiazole], the IC50 is 550 nM. Same read-out and setting: in the case of `CCC(C)c1nc(-c2nn(-c3ccc(Cl)cc3Cl)c(-c3ccc(Cl)cc3)c2C)nn1C(C)C` (stereo not shown) [Example 633, 5-sec-butyl-3-(5-(4-chlorophenyl)-1-(2,4-dichlorophenyl)-4-methyl-1H-pyrazol-3-yl)-1-isopropyl-1H-1,2,4-triazole] it was 60.9 nM; in that of `Cc1c(-c2nc(C3CCCC3)n(C)n2)nn(-c2ccc(Cl)cc2Cl)c1-c1ccc(Cl)cc1` [Example 623, 3-(5-(4-chlorophenyl)-1-(2,4-dichlorophenyl)-4-methyl-1H-pyrazol-3-yl)-5-cyclopentyl-1-methyl-1H-1,2,4-triazole], 368 nM. The same measure, in the same setting: to `CCC(C)c1nnc(-c2nn(-c3ccc(Cl)cc3Cl)c(-c3ccc(Cl)cc3)c2Cl)o1` (stereo not shown) [Example 336, 2-sec-butyl-5-(4-chloro-5-(4-chlorophenyl)-1-(2,4-dichlorophenyl)-1H-pyrazol-3-yl)-1,3,4-oxadiazole] belongs 207 nM. Same read-out and setting: to `Cc1c(-c2n[nH]c(-c3cccs3)n2)nn(-c2ccc(Cl)cc2Cl)c1-c1ccc(Cl)cc1` [Example 614, 3-(5-(4-Chlorophenyl)-1-(2,4-dichlorophenyl)-4-methyl-1H-pyrazol-3-yl)-5-(thiophen-2-yl)-1H-1,2,4-triazole] belongs 389 nM. Regarding `Cc1c(-c2nnc(C3(c4ccc(Cl)cc4)CCC3)o2)nn(-c2cc(Cl)ccc2Cl)c1-c1ccc(Cl)cc1` [Example 168, 2-(5-(4-chlorophenyl)-1-(2,5-dichlorophenyl)-4-methyl-1H-pyrazol-3-yl)-5-(1-(4-chlorophenyl)cyclobutyl)-1,3,4-oxadiazole], the IC50 was 200 nM. Still for that read-out and setting: in the case of `CC(F)c1c(-c2nnc(C3(c4ccc(Cl)cc4)CC3)o2)nn(-c2ccc(Cl)cc2Cl)c1-c1ccc(Cl)cc1` (stereo not shown) [Example 212, 2-(5-(4-chlorophenyl)-1-(2,4-dichlorophenyl)-4-(1-fluoroethyl)-1H-pyrazol-3-yl)-5-(1-(4-chlorophenyl)cyclopropyl)-1,3,4-oxadiazole] it was 4.97 nM; in that of `Cc1c(-c2nnnn2C2CCC2)nn(-c2ccc(Cl)cc2Cl)c1-c1ccc(Cl)cc1` [Example 600, 5-(5-(4-Chlorophenyl)-1-(2,4-dichlorophenyl)-4-methyl-1H-pyrazol-3-yl)-1-cyclobutyl-1H-tetrazole], 42.3 nM. The same measure, in the same setting: in the case of `C#Cc1c(-c2nnc(C(C)(C)C)o2)nn(-c2ccc(Cl)cc2Cl)c1-c1ccc(Cl)cc1` [Example 260, 2-tert-butyl-5-(5-(4-chlorophenyl)-1-(2,4-dichlorophenyl)-4-ethynyl-1H-pyrazol-3-yl)-1,3,4-oxadiazole] it was 10.6 nM; in that of `CCc1c(-c2nnc(C(C)C)s2)nn(-c2ccc(Cl)cc2Cl)c1-c1ccc(Br)cc1` [Example 453, 2-(5-(4-bromophenyl)-1-(2,4-dichlorophenyl)-4-ethyl-1H-pyrazol-3-yl)-5-isopropyl-1,3,4-thiadiazole], 27.1 nM. On the same count and under the same terms, in the case of `Cc1c(-c2nnnn2Cc2ccncc2)nn(-c2ccc(Cl)cc2Cl)c1-c1ccc(Cl)cc1` [Example 587, 4-((5-(5-(4-Chlorophenyl)-1-(2,4-dichlorophenyl)-4-methyl-1H-pyrazol-3-yl)-1H-tetrazol-1-yl)methyl)pyridine] it was 88.2 nM; in that of `CCc1c(-c2nnc(C3CCC3)s2)nn(-c2ccc(Cl)cc2Cl)c1-c1ccc(Br)cc1` [Example 375, 2-(5-(4-Bromophenyl)-1-(2,4-dichlorophenyl)-4-ethyl-1H-pyrazol-3-yl)-5-cyclobutyl-1,3,4-thiadiazole], 18.5 nM; in that of `CCc1c(-c2nnc(C3(C#N)CC3)o2)nn(-c2ccc(Cl)cc2Cl)c1-c1ccc(Br)cc1` [Example 266, 1-(5-(5-(4-bromophenyl)-1-(2,4-dichlorophenyl)-4-ethyl-1H-pyrazol-3-yl)-1,3,4-oxadiazol-2-yl)cyclopropanecarbonitrile], 15.5 nM.

For the compound `CCc1c(-c2nnc(C3(c4ccc(OC)cc4)CC3)s2)nn(-c2ccc(Cl)cc2Cl)c1-c1ccc(Br)cc1` [Example 473, 2-(5-(4-bromophenyl)-1-(2,4-dichlorophenyl)-4-ethyl-1H-pyrazol-3-yl)-5-(1-(4-methoxyphenyl)cyclopropyl)-1,3,4-thiadiazole], the IC50 turned out to be 4.53 nM. Same read-out and setting: to `Cc1c(-c2nnc(C3(C)CC3)s2)nn(-c2ccc(Cl)cc2Cl)c1-c1ccc(Cl)cc1` [Example 469, 2-(5-(4-chlorophenyl)-1-(2,4-dichlorophenyl)-4-methyl-1H-pyrazol-3-yl)-5-(1-methylcyclopropyl)-1,3,4-thiadiazole] belongs 36.3 nM; to `Cc1c(-c2nnc(C(C)(C)C)s2)nn(-c2ccccc2Cl)c1-c1ccc(Cl)cc1` [Example 405, 2-tert-butyl-5-(1-(2-chlorophenyl)-5-(4-chlorophenyl)-4-methyl-1H-pyrazol-3-yl)-1,3,4-thiadiazole], 14.7 nM; to `CCc1c(-c2nnc(C3(C#N)CC3)s2)nn(-c2ccc(Cl)cc2Cl)c1-c1ccc(Cl)cc1` [Example 491, 1-(5-(5-(4-chlorophenyl)-1-(2,4-dichlorophenyl)-4-ethyl-1H-pyrazol-3-yl)-1,3,4-thiadiazol-2-yl)cyclopropanecarbonitrile], 143 nM.

(Values after patent publication US7875647B2, “Heteroaryl-pyrazole derivatives as cannabinoid CB1 receptor antagonists” (Green Cross Corporation, priority 2006, dated 2011).)
